Measured values taken from paper PMC12750888, “Design, synthesis, and anti-Toxoplasma gondii evaluation of β-carboline derivatives” (Parasites & Vectors, 2025).

How the values were obtained:
[1] = test system: Vero cells; test: Cell viability assay (CCK-8) on Vero cells; type: cell-based, African green monkey; conditions: 24 h; for Cytotoxicity: CCK-8, tested up to 30 µM; for inhibition at 30 µM: Chlorocebus sabaeus, CCK-8, read-out: Inhibition rate of Vero cell at 30 μM
Method: African green monkey kidney (Vero) cells were cultured in Dulbecco’s modified Eagle’s medium (DMEM) supplemented with 100 U/mL penicillin, 100 μg/mL streptomycin, 1% nonessential amino acids (NEAAs), 1% GlutaMAX and 10% fetal bovine serum (FBS) at 37 °C in an atmosphere of 5% CO2. […] DMEM without a drug was used as a control. After 24 h of treatment, Cell Counting Kit-8 (CCK-8, CA1210, Solarbio) was used to determine cell viability at 450 nm via a Multiskan GO instrument.

[2] = test system: T. gondii RH tachyzoites; test: Screening for anti-T. gondii activity in vitro (plaque and qPCR assays); type: cell-based, Toxoplasma gondii; conditions: Toxoplasma gondii, Vero, 24 h, 30 μM, RH tachyzoites in Vero cells, plaque and qPCR assays
Method: The anti-T. gondii activity of compounds NBZ001‒037 was examined via RT-PCR. Confluent Vero cells in 6-well plates were infected with 2 × 10^5 T. gondii RH tachyzoites per well, incubated for 6 h, and then washed twice with PBS to remove extracellular tachyzoites. The cell monolayers were incubated with DMEM (1% FBS) containing various concentrations of NBZ001‒037 for 24 h. Total genomic DNA from each sample was isolated with the DNAiso reagent (Takara), and the levels of the 529-bp repeat element of T. gondii were measured by qPCR. A plaque assay was used to evaluate the activity of the compounds. The detailed experimental procedures were described in previous studies.

`O=C(c1ccccc1Cl)c1nccc2c1[nH]c1ccccc12` [NBZ001] gave a Cytotoxicity [1] of over 30.00 µM, an inhibition at 30 µM [1] of 24.2% and an inhibition of growth at 30 µM [2] of 31.3%.

With `O=C(c1ccccc1Br)c1nccc2c1[nH]c1ccccc12` [NBZ002] the Cytotoxicity [1] was over 30.00 µM, the inhibition at 30 µM [1] was 27.2% and the inhibition of growth at 30 µM [2] was 42.2%.

With `O=C(c1ccccc1Br)c1nccc2c1[nH]c1ccc(Br)cc12` [NBZ003] the Cytotoxicity [1] was over 30.00 µM, the inhibition at 30 µM [1] was 21.8% and the inhibition of growth at 30 µM [2] was 40.8%.

With `Cc1ccc2[nH]c3c(C(=O)c4ccccc4Cl)nccc3c2c1` [NBZ004] the Cytotoxicity [1] was over 30.00 µM, the inhibition at 30 µM [1] was 5.35% and the inhibition of growth at 30 µM [2] was 43.8%.

`Cc1ccc2[nH]c3c(C(=O)c4ccccc4Br)nccc3c2c1` [NBZ005] was tested, and the Cytotoxicity [1] was over 30.00 µM, the inhibition at 30 µM [1] was 43.9% and the inhibition of growth at 30 µM [2] was 33.9%.

Work on `Cc1ccc2[nH]c3c(C(=O)c4cccc(Br)c4)nccc3c2c1` [NBZ006] yielded a Cytotoxicity [1] of over 30.00 µM, an inhibition at 30 µM [1] of 13.1% and an inhibition of growth at 30 µM [2] of 33.3%.

Compound `Cc1ccc2[nH]c3c(C(=O)c4ccc(Br)cc4)nccc3c2c1` [NBZ007] has a Cytotoxicity [1] of over 30.00 µM, an inhibition at 30 µM [1] of 13.5% and an inhibition of growth at 30 µM [2] of 31.2%.

For `COc1ccc(C(=O)c2nccc3c2[nH]c2ccc(C)cc23)cc1` [NBZ008], the Cytotoxicity [1] was over 30.00 µM, the inhibition at 30 µM [1] was 13.1% and the inhibition of growth at 30 µM [2] was 17.3%.

In the case of `O=C(O)c1ccc2[nH]c3c(C(=O)c4ccccc4Cl)nccc3c2c1` [NBZ009], the Cytotoxicity [1] is reported as over 30.00 µM, the inhibition at 30 µM [1] is reported as 15% and the inhibition of growth at 30 µM [2] is reported as 32.1%.

Work on `O=C(O)c1ccc2[nH]c3c(C(=O)c4ccccc4Br)nccc3c2c1` [NBZ010] yielded a Cytotoxicity [1] of over 30.00 µM, an inhibition at 30 µM [1] of 16.6% and an inhibition of growth at 30 µM [2] of 45.2%.

`O=C(O)c1ccc2[nH]c3c(C(=O)c4ccc(Br)cc4)nccc3c2c1` [NBZ011] showed a Cytotoxicity [1] of over 30.00 µM, an inhibition at 30 µM [1] of 3.88% and an inhibition of growth at 30 µM [2] of over 50%.

For `COc1ccc(C(=O)c2nccc3c2[nH]c2ccc(C(=O)O)cc23)cc1` [NBZ012], the Cytotoxicity [1] was over 30.00 µM, the inhibition at 30 µM [1] was 7.66% and the inhibition of growth at 30 µM [2] was 21.9%.

`NC(=O)c1ccc2[nH]c3c(C(=O)c4ccccc4Br)nccc3c2c1` [NBZ013] gave a Cytotoxicity [1] of over 30.00 µM, an inhibition at 30 µM [1] of 11.2% and an inhibition of growth at 30 µM [2] of 34.5%.

For `CCCCNC(=O)c1ccc2[nH]c3c(C(=O)c4ccccc4Br)nccc3c2c1` [NBZ014], the Cytotoxicity [1] was over 30.00 µM, the inhibition at 30 µM [1] was 19.7% and the inhibition of growth at 30 µM [2] was 2.09%.

In the case of `O=C(NC1CCCCC1)c1ccc2[nH]c3c(C(=O)c4ccccc4Br)nccc3c2c1` [NBZ015], the Cytotoxicity [1] is reported as over 30.00 µM, the inhibition at 30 µM [1] is reported as 3.68% and the inhibition of growth at 30 µM [2] is reported as 37.1%.

`O=C(c1ccccc1Cl)c1nccc2c1[nH]c1ccc(C(=O)N3CCOCC3)cc12` [NBZ016] gave a Cytotoxicity [1] of over 30.00 µM, an inhibition at 30 µM [1] of 10.5% and an inhibition of growth at 30 µM [2] of 37.4%.

`O=C(NCc1ccco1)c1ccc2[nH]c3c(C(=O)c4ccccc4Br)nccc3c2c1` [NBZ017] gave a Cytotoxicity [1] of over 30.00 µM, an inhibition at 30 µM [1] of 10.8% and an inhibition of growth at 30 µM [2] of 43.4%.

`COc1ccccc1NC(=O)c1ccc2[nH]c3c(C(=O)c4ccccc4Cl)nccc3c2c1` [NBZ027, (2-Chlorobenzoyl)-N-(2-methoxyphenyl)-9H-pyrido[3,4-b]indole-6-carboxamide] was tested, and the Cytotoxicity [1] was over 30.00 µM and the inhibition at 30 µM [1] was 27.9%.

`COc1ccc(NC(=O)c2ccc3[nH]c4c(C(=O)c5ccccc5Cl)nccc4c3c2)cc1` [NBZ028] was tested, and the Cytotoxicity [1] was over 30.00 µM and the inhibition at 30 µM [1] was 19.3%.

Work on `O=C(Nc1cccc2ccccc12)c1ccc2[nH]c3c4[n+](ccc3c2c1)-c1ccccc1C4=O` [NBZ034] yielded an inhibition at 30 µM [1] of 58.2%.

`Cc1ccc(NC(=O)c2ccc3[nH]c4c5[n+](ccc4c3c2)-c2ccccc2C5=O)cc1.[Cl-]` [NBZ037, 13-oxo-9-(p-tolylcarbamoyl)-12,13-dihydropyrido[1,2-a:3,4-b’]diindol-5-ium chloride] gave a Cytotoxicity [1] of over 30.00 µM and an inhibition at 30 µM [1] of 29.7%.
